Biological target: T1, full-length human PKCι (Homo sapiens, UniProt P41743)
T1 construct: Recombinant, full-length human PKCι expressed in Sf21 insect cells is also commercially available; purchased; host or cells: Sf21 insect cells
T1 sequence (P41743 1-596): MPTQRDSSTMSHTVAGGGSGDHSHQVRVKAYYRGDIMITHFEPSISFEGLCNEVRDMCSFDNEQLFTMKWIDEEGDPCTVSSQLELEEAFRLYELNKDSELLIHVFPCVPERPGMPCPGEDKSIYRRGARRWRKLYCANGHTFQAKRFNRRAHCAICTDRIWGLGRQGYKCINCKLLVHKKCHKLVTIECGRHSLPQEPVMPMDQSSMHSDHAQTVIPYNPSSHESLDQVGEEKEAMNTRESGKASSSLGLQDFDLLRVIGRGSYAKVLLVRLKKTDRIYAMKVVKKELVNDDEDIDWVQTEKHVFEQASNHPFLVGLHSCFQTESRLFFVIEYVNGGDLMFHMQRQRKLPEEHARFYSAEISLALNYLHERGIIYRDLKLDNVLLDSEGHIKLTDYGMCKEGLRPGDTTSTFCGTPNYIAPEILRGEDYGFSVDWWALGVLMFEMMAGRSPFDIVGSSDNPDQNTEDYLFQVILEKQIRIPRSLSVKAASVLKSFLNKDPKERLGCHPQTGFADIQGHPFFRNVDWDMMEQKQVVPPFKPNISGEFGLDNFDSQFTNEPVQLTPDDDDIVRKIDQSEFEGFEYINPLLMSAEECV
Experiment: PKCι IC50 IMAP assay, full-length PKCι at 150 μM ATP
Assay type: biochemical
Settings: read-out: IC50 in IMAP assay against full length PKCi at 150 μM ATP
In short: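 Full-length human PKCι from Sf21 cells, typically 15 pM, with 100 nM 5FAM-PKCε pseudosubstrate peptide and 150 μM ATP (5× apparent KM), 60 min at room temperature, 4% DMSO. IMAP fluorescence polarisation read-out; inhibition normalised to no-compound and no-enzyme controls, IC50 from curve fit.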

Structure (SMILES)	IC50 [nM]
c1ccc2c(c1)CC[C@H]2Nc1cc(-c2nc(N3CCNCC3)c3c(C4CC4)cncc3n2)ccn1 [Example 2098, [4-(5-Cyclopropyl-4-piperazin-1-yl-pyrido[3,4-d]pyrimidin-2-yl)-pyridin-2-yl]-(R)-indan-1-yl-amine]	< 100
Cc1cccc(C)c1Nc1cc(-c2nc(N3CCNCC3)c3c(C4CC4)cncc3n2)ccn1 [Example 541, [4-(5-Cyclopropyl-4-piperazin-1-yl-pyrido[3,4-d]pyrimidin-2-yl)-pyridin-2-yl]-(2,6-dimethyl-phenyl)-amine]	< 100
FC(F)(F)C1(c2cc3c(-c4nc(N5CCNCC5)c5c(C6CC6)cncc5n4)ccnc3[nH]2)CCC1 [Example 2207, 5-Cyclopropyl-4-piperazin-1-yl-2-[2-(1-trifluoromethyl-cyclobutyl)-1H-pyrrolo[2,3-b]pyridin-4-yl]-pyrido[3,4-d]pyrimidine]	< 100
Clc1ncc(C2CC2)c2c(N3CCNCC3)nc(-c3ccnc4[nH]ccc34)nc12 [Example 1210, 8-Chloro-5-cyclopropyl-4-piperazin-1-yl-2-(1H-pyrrolo[2,3-b]pyridin-4-yl)-pyrido[3,4-d]pyrimidine]	< 100
FC(F)(F)CC1CN(c2nc(-c3ccnc(Nc4ccccc4)c3)nc3cncc(C4CC4)c23)CCN1 (stereo not drawn) [Example 643, [4-{5-Cyclopropyl-4-[3-(2,2,2-trifluoro-ethyl)-piperazin-1-yl]-pyrido[3,4-d]pyrimidin-2-yl}-pyridin-2-yl)-phenyl-amine]	1000 to 10000
Fc1ccc(C(F)(F)F)cc1Nc1cc(-c2nc(N3CCNCC3)c3c(C4CC4)cncc3n2)ccn1 [Example 522, [4-(5-Cyclopropyl-4-piperazin-1-yl-pyrido[3,4-d]pyrimidin-2-yl)-pyridin-2-yl]-(2-fluoro-5-trifluoromethyl-phenyl)-amine]	100 to 1000
NC(=O)c1cccc(Nc2cc(-c3nc(N[C@@H]4CCNC4)c4ccncc4n3)ccn2)c1 [Example 308, 3-{4-[4-((R)-Pyrrolidin-3-ylamino)-pyrido[3,4-d]pyrimidin-2-yl]-pyridin-2-ylamino}-benzamide]	100 to 1000
CN(c1nc(-c2ccnc(Nc3ccc4ccccc4n3)c2)nc2cncc(C3CC3)c12)C1CCNCC1 [Example 2138, {5-Cyclopropyl-2-[2-([D4],[D3]uinolin-2-ylamino)-pyridin-4-yl]-pyrido[3,4-d]pyrimidin-4-yl}-methyl-piperidin-4-yl-amine]	< 100
COc1cncc2nc(-c3ccnc(Nc4cnccn4)c3)nc(N[C@@H]3CCNC3)c12 [Example 239, {5-Methoxy-2-[2-(pyrazin-2-ylamino)-pyridin-4-yl]-pyrido[3,4-d]pyrimidin-4-yl}-(R)-pyrrolidin-3-yl-amine]	< 100
CN1CCN(c2cccc(Nc3cc(-c4nc(N5CCN[C@@H](C(F)(F)F)C5)c5c(C6CC6)cncc5n4)ccn3)c2)CC1 [Example 2052, {4-[5-Cyclopropyl-4-((R)-3-trifluoromethyl-piperazin-1-yl)-pyrido[3,4-d]pyrimidin-2-yl]-pyridin-2-yl}-[3-(4-methyl-piperazin-1-yl)-phenyl]-amine]	< 100
Fc1cccc(Nc2cc(-c3nc(N4CCN[C@@H](C5CC5)C4)c4c(C5CC5)cncc4n3)ccn2)n1 [Example 277, {4-[5-Cyclopropyl-4-((S)-3-cyclopropyl-piperazin-1-yl)-pyrido[3,4-d]pyrimidin-2-yl]-pyridin-2-yl}-(6-fluoro-pyridin-2-yl)-amine]	< 100
FC(F)(F)C1CN(c2nc(-c3ccnc(Cl)c3)nc3cncc(C4CC4)c23)CCN1 (stereo not drawn) [Example 624, 2-(2-Chloro-pyridin-4-yl)-5-cyclopropyl-4-(3-trifluoromethyl-piperazin-1-yl)-pyrido[3,4-d]pyrimidine]	100 to 1000
OC[C@@H](Nc1cc(-c2nc(N3CCNCC3)c3c(C4CC4)cncc3n2)ccn1)c1ccccc1 [Example 2164, (S)-2-[4-(5-Cyclopropyl-4-piperazin-1-yl-pyrido[3,4-d]pyrimidin-2-yl)-pyridin-2-ylamino]-2-phenyl-ethanol]	< 100
Nc1nccc2c(NC[C@@H](N)Cc3ccccc3)nc(N3CCOCC3)nc12 [Example 1013, N^4-((S)-2-Amino-3-phenyl-propyl)-2-morpholin-4-yl-pyrido[3,4-d]pyrimidine-4,8-diamine]	100 to 1000
COc1cncc2nc(N3CCOC(COc4ccccc4)C3)nc(N3CCNCC3)c12 (stereo not drawn) [Example 1004, 5-Methoxy-2-(2-phenoxymethyl-morpholin-4-yl)-4-piperazin-1-yl-pyrido[3,4-d]pyrimidine]	1000 to 10000
Fc1cccc(F)c1Nc1cc(-c2nc(NCC3CCN(C4CCC4)CC3)c3c(C4CC4)cncc3n2)ccn1 [Example 2103, (1-Cyclobutyl-piperidin-4-ylmethyl)-{5-cyclopropyl-2-[2-(2,6-difluoro-phenylamino)-pyridin-4-yl]-pyrido[3,4-d]pyrimidin-4-yl}-amine]	100 to 1000
Fc1cccc(F)c1Nc1cc(-c2nc(N3CCNCC3)c3c(C4CCC4)cncc3n2)ccn1 [Example 620, [4-(5-Cyclobutyl-4-piperazin-1-yl-pyrido[3,4-d]pyrimidin-2-yl)-pyridin-2-yl]-(2,6-difluoro-phenyl)-amine]	< 100
Fc1ccc(OC(F)(F)F)cc1Nc1cc(-c2nc(N3CCNCC3)c3c(C4CC4)cncc3n2)ccn1 [Example 555, [4-(5-Cyclopropyl-4-piperazin-1-yl-pyrido[3,4-d]pyrimidin-2-yl)-pyridin-2-yl]-(2-fluoro-5-trifluoromethoxy-phenyl)-amine]	100 to 1000
COc1cncc2nc(-c3ccnc(Nc4cccc(C#N)c4)c3)nc(N3CCNCC3)c12 [Example 205, 3-[4-(5-Methoxy-4-piperazin-1-yl-pyrido[3,4-d]pyrimidin-2-yl)-pyridin-2-ylamino]-benzonitrile]	100 to 1000
CNc1nc(-c2ccnc(Nc3cccc(N4CCNCC4)c3)c2)nc2cncc(OC)c12 [Example 500, {5-Methoxy-2-[2-(3-piperazin-1-yl-phenylamino)-pyridin-4-yl]-pyrido[3,4-d]pyrimidin-4-yl}-methyl-amine]	100 to 1000
COc1cncc2nc(-c3ccnc(Nc4ccc(N5CCNCC5)nc4)c3)nc(N3CCNCC3)c12 [Example 412, [4-(5-Methoxy-4-piperazin-1-yl-pyrido[3,4-d]pyrimidin-2-yl)-pyridin-2-yl]-(6-piperazin-1-ylpyridin-3-yl)-amine]	< 100
COc1ccc(C)c(Nc2cc(-c3nc(N4CCNCC4)c4c(C5CC5)cncc4n3)ccn2)c1 [Example 553, [4-(5-Cyclopropyl-4-piperazin-1-yl-pyrido[3,4-d]pyrimidin-2-yl)-pyridin-2-yl]-{5-methoxy-2-methyl-phenyl)-amine]	< 100
CCOc1ccc(F)c(Nc2cc(-c3nc(N4CCNCC4)c4c(C5CC5)cncc4n3)ccn2)c1F [Example 567, [4-(5-Cyclopropyl-4-piperazin-1-yl-pyrido[3,4-d]pyrimidin-2-yl)-pyridin-2-yl]-(3-ethoxy-2,6-difluoro-phenyl)-amine]	< 100
COc1cncc2nc(-c3ccnc(Nc4ccccc4C(F)(F)F)c3)nc(N3CCNCC3)c12 [Example 445, [4-(5-Methoxy-4-piperazin-1-yl-pyrido[3,4-d]pyrimidin-2-yl)-pyridin-2-yl]-(2-trifluoromethyl-phenyl)-amine]	100 to 1000
CCNC(=O)N[C@H](CNc1nc(-c2ccncc2)nc2cnccc12)Cc1ccccc1 [Example 85, 3-ethyl-1-(1-phenyl-3-{[2-(pyridin-4-yl)pyrido[3,4-d]pyrimidin-4-yl]amino}propan-2-yl)urea]	10000 to 40000
N[C@H](CNc1nc(-c2ccncc2)nc2c(-c3cccc(O)c3)nccc12)Cc1ccccc1 [Example 92, 3-(4-{[(2S)-2-amino-3-phenylpropyl]-amino}-2-(pyridin-4-yl)-pyrido[3,4-d]-pyrimidin-8-yl)phenol]	1000 to 10000
c1cc(-c2nc(N3CCNCC3)c3c(C4CC4)cncc3n2)cc(Nc2cnn(C3CC3)c2)n1 [Example 794, [4-(5-Cyclopropyl-4-piperazin-1-yl-pyrido[3,4-d]pyrimidin-2-yl)-pyridin-2-yl]-(1-cyclopropyl-1H-pyrazol-4-yl)-amine]	< 100
O[C@@H]1CN(c2nc(-c3ccnc4[nH]c(C(F)(F)F)cc34)nc3cncc(C4CC4)c23)CC[C@@H]1O (racemic) [Example 1234, (+/−)-(cis)-1-[5-Cyclopropyl-2-(2-trifluoromethyl-1H-pyrrolo[2,3-b]pyridin-4-yl)-pyrido[3,4-d]pyrimidin-4-yl]-piperidine-3,4-diol]	100 to 1000
Cc1ccc(F)c(Nc2cc(-c3nc(N4CCNCC4)c4c(C5CC5)cncc4n3)ccn2)c1 [Example 504, [4-(5-Cyclopropyl-4-piperazin-1-yl-pyrido[3,4-d]pyrimidin-2-yl)-pyridin-2-yl]-(2-fluoro-5-methyl-phenyl)-amine]	< 100
O=C(NC1CCCCC1)N1CCN(c2nc(-c3ccncc3)nc3cnccc23)CC1 [Example 57, N-cyclohexyl-4-[2-(pyridin-4-yl)-pyrido[3,4-d]-pyrimidin-4-yl]-piperazine-1-carboxamide]	10000 to 40000

From patent US9914730B2, “Azaquinazoline inhibitors of Atypical protein Kinase C” (Ignyta, Inc., priority 2012, dated 2018)
